For assay [1], the system named is MEOX1 expression in human fibroblasts from kidney. As to the kind of experiment: MEOX1 expression by qPCR in TGFβ-treated human kidney fibroblasts. It is filed as cell-based. Particulars: TGF-β1 10 ng/ml, JQ1 0.5 uM. Here is the method: (§1) Human fibroblasts from lung (ATCC, #CRL-4058), liver (CELL APPLICATIONS INC, #712-05f) and kidney (Cell Biologics, #H-6016) were passaged and grown like the mouse cardiac fibroblasts (see “Generation of cardiac fibroblast immortalized cell line, culture condition and TGFβ stimulation” section for more details”). In brief, human fibroblasts were seeded at 1×10^5/well of 6 well plate at day 1. On day 2, the media was changed to the same basal media with 0.5% FBS. On the day 3, TGF-β1 (Peprotech #100-21C) was added into the media at a concentration of 10 ng/ml. JQ1 was added at a final concentration of 0.5 uM. Cells were collected on day 5 for RT-qPCR and gene expression analysis.

The subject of another assay is Meox1 expression. As to the kind of experiment: Meox1 expression by qPCR in TGF-β-treated cultured cardiac fibroblasts. It is filed as cell-based, mouse. Particulars: TGF-β1 10 ng/ml, JQ1 500 nM. On the procedure:
JQ1 was synthesized and purified in the laboratory of Jun Qi (Dana-Farber Cancer Institute), as described by Filippakopoulos et al. (Nature 468, 1067-1073 (2010)). For in vivo experiments, a stock solution [50 mg/ml JQ1 in dimethyl sulfoxide (DMSO)] was diluted to a working concentration of 5 mg/ml in an aqueous carrier (10% hydroxypropyl b-cyclodextrin; Sigma C0926) using vigorous vortexing. Mice were injected at a dose of 50 mg/kg given intraperitoneally once daily. Vehicle control was an equal amount of DMSO dissolved in 10% hydroxypropyl b-cyclodextrin carrier solution. All solutions were prepared and administered using sterile technique. For in vitro experiments, JQ1 was dissolved in DMSO and administered to cells at 500 nM final concentration using an equal volume of DMSO as control.
A Tcf21MCM mouse (Acharya et al., Genesis 49, 870-877 (2011)) was crossed with a Rosa26-Ai6 mouse (Jackson Laboratory stock #007906) to generate a Tcf21^MCM/+; Rosa26^Ai6/+ mouse. At 10 weeks of age, intraperitoneal injection of Tamoxifen (75 mg tamoxifen/kg) was done for 5 days (once a day). […] As primary cells only undergo a pre-determined and finite number of cell divisions in culture, and then enter a state of replicative senescence, the inventors employed a widely used method for immortalizing mammalian cells in culture based on Simian virus 40 (SV40) T antigen expression. […]
Quantitative RT-PCR. […]
A general note: In qPCR the cycle at which signal appears reflects the starting amount.

For assay [2], the system named is non-CM compartment of mouse hearts. Put plainly: single cell RNA sequencing of non-CM heart cells from TAC mice. The format is in vivo. On the procedure:
(§2) Cell isolation from mouse hearts was performed as described by Li et al. (J. Vis. Exp. (2014)) with modifications. Briefly, after proper anesthesia level was reached, thoracotomy was performed, and mouse heart was isolated. The isolated heart was cannulated and perfused with perfusion buffer (120.4 mM NaCl, 14.7 mM KCl, 0.6 mM KH2PO4, 0.6 mM Na2HPO4, 1.2 mM MgSO4, 10 mM Na-HEPES, 4.6 mM NaHCO3, 30 mM taurine, 10 mM 2,3-butanedione monoxime, and 5.5 mM glucose, pH 7.0) in a Langendorff perfusion system (Radnoti 120108EZ) for 5-10 minutes at 37° C. The cannulated heart was then digested by digestion buffer (perfusion buffer with 300 units/mL collagenase II (Worthington Biochemical) and 50 μM CaCl2)) for about 10 min at 37° C. At the end of digestion, the atria and great vessels were removed, and the ventricular tissue was transferred to and gently teased into small pieces in stop buffer (perfusion buffer with 10% fetal bovine serum) at 37° C. After gently pipetting, cell suspension was passed through a 250 uM strainer in a falcon tube and then at 30×g for 3 minutes at room temperature (RT). Then, the supernatant—containing most of the non-cardiomyocytes (CMs)—was divided from the pellet (containing the CM fraction). The non-CM fraction was centrifuged again at 30×g for 3 minutes at RT and the supernatant kept. The supernatant was then filtered with a cell strainer (70 um) and finally centrifuged at 400×g for 3 minutes at RT for eliminating debris. The non-CM pellet was finally resuspended in 1 mL cold PBS 0.5% BSA. 30 k cells were counted with trypan blue using a hemocytometer and then used for subsequent 10× Genomics Chromium single cell RNAseq preparation. For single cell ATAC, 500 k isolated and purified non-CMs were resuspended in […] lysis buffer (Tris-HCl 10 mM pH 7.4, NaCl 10 mM, MgCl2 3 mM, Tween-20 0.1%, P40 0.1%, Digitonin 0.01%, BSA 1% in Nuclease-free water), pipetted 10 times and kept on ice for 5 minutes. Nuclei were then washed 1 mL 1× PBS with 1% BSA and then […] at 4° C. The nuclei pellet was resuspended in 1 mL 1× PBS with 1% BSA and filtered with a 10 uM strainer (pluriSelect #43-50010-00). Nuclei were then counted with DAPI using a hemocytometer and finally 30 k non-CM nuclei used for subsequent 10× Genomics Chromium single cell ATACseq preparation. The CM-fraction was, after the first centrifugation, centrifugated again at 30×g for 3 minutes at RT in stopping buffer and the supernatant was discarded. The CM pellet was finally centrifuged at 400×g for 3 minutes in stopping buffer at RT and after discarding the supernatant, the cell pellet was lysed in Qiazol (miRNeasy kit—Qiagen) for subsequent RNA extraction.
Single-cell droplet libraries from the non-CM cell suspension (2× Sham, 2× TAC-Veh, 2× TAC-JQ1 and 2× TAC-JQ1 withdrawn) (FIG. 2C) were generated in the 10× Genomics Chromium controller according to the manufacturer's instructions in the Chromium Single Cell 3′ Reagent Kit v.2 User Guide. Additional components used for library preparation include the Chromium Single Cell 3′ Library and Gel Bead Kit v.2 (PN-120237) and the Chromium Single Cell 3′ Chip kit v.2 (PN-120236). Libraries were prepared according to the manufacturer's instructions using the Chromium Single Cell 3′ Library and Gel Bead Kit v.2(PN-120237) and Chromium 7 Multiplex Kit (PN-120262). Final libraries were sequenced on the NextSeq 500 (Illumina) for a quality control run and then on the NovaSeq (Illumina) for deeper sequencing. All the 8 samples were pooled and sequenced in one single lane. Sequencing parameters were selected according to the Chromium Single Cell v.2 specifications. All libraries were sequenced to a mean read depth of at least 50,000 total aligned reads per cell. Raw sequencing reads were processed using the Cell Ranger v.2.2.0 pipeline from 10× Genomics. […]

In assay [3] the test system is distal elements (incl. Meox1 enhancer) in fibroblasts, myeloid and endothelial cells. Put plainly: single cell ATAC sequencing of non-CM heart nuclei from TAC mice, chromatin accessibility of distal elements. It is filed as in vivo, mouse. On the procedure: as §2
After successful nuclei isolation, nuclei were then processed according to the 10× Genomics Single Cell ATAC kit v1.0 (PN-1000110) by first incubating with Tn5 Transposase for 1 hour, followed by GEM generation and barcode amplification using the 10× Genomics Chromium controller according to the manufacturer's instructions. Additional components used for library preparation include the Chromium Chip E Single Cell ATAC kit (PN-1000082) and Chromium i7 Multiplex Kit N, Set A primers (PN-1000084). Final libraries were sequenced on the NextSeq 500 (Illumina) for a quality control run and then on the NovaSeq (Illumina) for deeper sequencing. All the 8 samples (2× Sham, 2× TAC-Veh, 2× TAC-JQ1 and 2× TAC-JQ1 withdrawn) (FIG. 2C) were pooled and sequenced in one NovaSeq single lane. Sequencing parameters were selected according to the Chromium Single Cell ATAC v1.0 specifications. All libraries were sequenced to a median read depth of at least 2,500 fragments/nuclei. Raw sequencing reads were processed using the Cell Ranger ATAC v1.0 pipeline from 10× Genomics. In brief, reads were demultiplexed and aligned to the mouse mm10 genome. As a test of sample quality, a minimum of 70% of fragments overlapped targeted regions as defined by CellRanger. […]

The test system of assay [4] is several rodent models of HF. Particulars: background description; cited from earlier work.
In assay [5] the test system is BET family of bromodomain proteins. Particulars: background description; cited from earlier work.
Assay [6] concerns MEOX1 expression in human fibroblasts from liver. As to the kind of experiment: MEOX1 expression by qPCR in TGFβ-treated human liver fibroblasts. The format is cell-based. Particulars: TGF-β1 10 ng/ml, JQ1 0.5 uM. Here is the method:
as §1

For assay [7], the system named is MEOX1 expression in human fibroblasts from lung. As to the kind of experiment: MEOX1 expression by qPCR in TGFβ-treated human lung fibroblasts. The format is cell-based. Particulars: TGF-β1 10 ng/ml, JQ1 0.5 uM. Here is the method:
as §1

The test system of the next assay is isolated adult CMs. Put plainly: bulk RNA-Seq of isolated adult cardiomyocytes from TAC mice. It is filed as in vivo, mouse. On the procedure:
Cell isolation from mouse hearts was performed as described by Li et al. (J. Vis. Exp. (2014)) with modifications. Briefly, after proper anesthesia level was reached, thoracotomy was performed, and mouse heart was isolated. The isolated heart was cannulated and perfused with perfusion buffer (120.4 mM NaCl, 14.7 mM KCl, 0.6 mM KH2PO4, 0.6 mM Na2HPO4, 1.2 mM MgSO4, 10 mM Na-HEPES, 4.6 mM NaHCO3, 30 mM taurine, 10 mM 2,3-butanedione monoxime, and 5.5 mM glucose, pH 7.0) in a Langendorff perfusion system (Radnoti 120108EZ) for 5-10 minutes at 37° C. The cannulated heart was then digested by digestion buffer (perfusion buffer with 300 units/mL collagenase II (Worthington Biochemical) and 50 μM CaCl2)) for about 10 min at 37° C. […] 30 k cells were counted with trypan blue using a hemocytometer and then used for subsequent 10× Genomics Chromium single cell RNAseq preparation. […] Nuclei were then counted with DAPI using a hemocytometer and finally 30 k non-CM nuclei used for subsequent 10× Genomics Chromium single cell ATACseq preparation. […]
Total RNA from CMs was extracted using miRNeasy kit (Qiagen) according to the manufacturer's instructions and quantified with Nanodrop (Thermo scientific). […] Reads were mapped to the mm10 reference mouse genome using STAR (v 2.7.3a) and assigned to Ensembl genes. […]

Molecules are shown by their SMILES.

In the case of `Cc1sc2c(c1C)C(c1ccc(Cl)cc1)=NC(CC(=O)OC(C)(C)C)c1nnc(C)n1-2` (centres unmarked) [JQ1], in assay [1], the “TGFβ-induced MEOX1 expression” value is “suppressed”. Further, the “TGF-β-induced Meox1 upregulation” value in the assay on Meox1 expression is recorded as “suppressed”. Besides, in assay [2] (TAC JQ1-treated), the “fibroblast cell state (scRNAseq clustering)” value is recorded as “dramatic reversion of this cell state to one that closely approached the Sham state” and the “myofibroblast cell state (Postn marker)” value is given as “shifted the myoFB cell state back toward a Sham-like state”. Further, in assay [2] (TAC JQ1 withdrawn), the “Meox1 expression in MyoFBs (scRNAseq) after withdrawal” value was “robust re-induction”, the “fibroblast cell state (scRNAseq clustering) after withdrawal” value is recorded as “shift of the FB population back to a TAC-like stressed state” and the “myofibroblast cell state (Postn marker) after withdrawal” value is listed as “reverts these cells back to myoFBs”. Also, in assay [2] (TAC, BET inhibition with JQ1), the “Meox1 expression in MyoFBs (scRNAseq)” value is “abolished”. Further, the “transcriptome of endothelial and myeloid compartments” value in assay [2] (TAC, JQ1 exposure) was “dynamic transcriptomic shifts”. Besides, in assay [3] (fibroblasts), the “accessibility of fibroblast regions that opened from Sham to TAC (Cluster 9)” value is listed as “insensitive”. Also, the “sensitivity of the enhancer downstream of Meox1 to stress and JQ1 exposure” value in assay [3] (fibroblasts, but not myeloid and endothelial cells) is “extremely sensitive”. In assay [3] (fibroblasts, JQ1 treatment), the “accessibility of the 10 peaks of the Meox1 enhancer” value is listed as “closed with JQ1 treatment back to a Sham level” and the “increase in chromatin accessibility after TAC in fibroblasts” value is on record as “reversibly attenuated”. For the same compound, in [3] (fibroblasts, JQ1 withdrawal), the “accessibility of dynamic fibroblast distal elements (Cluster 2) after withdrawal” value is reported as “robustly re-accessible”. In addition, the “accessibility of the 10 peaks of the Meox1 enhancer after withdrawal” value in [3] (fibroblasts, JQ1 withdrawn) is “re-opened”. The “accessibility of dynamic fibroblast distal elements (Cluster 2)” value in assay [3] (fibroblasts, closed in Sham, opened in TAC, JQ1 treatment) is reported as “closed by JQ1”. The “attenuation of chromatin accessibility after TAC in myeloid and endothelial cells” value in assay [3] (myeloid and endothelial cells, JQ1 treatment) is “less evident”. Besides, in assay [4], the “prevention and treatment of heart failure” value was “can prevent and treat HF”. In addition, the “potency as BET bromodomain inhibitor” value in assay [5] is on record as “potent inhibitor”. In addition, in assay [6], the “TGFβ-induced MEOX1 expression” value is “suppressed”. Moreover, in assay [7], the “TGFβ-induced MEOX1 expression” value is on record as “suppressed”. Moreover, the “overlap of CM transcriptome effects with transcriptomic signature of whole LV tissue” value in the assay with isolated adult CMs was < 3%. Moreover, the “effects on the transcriptome of isolated adult CMs” value in the assay on isolated adult CMs (compared to published signature of whole LV tissue) is recorded as “modest”.

The record behind these values is patent publication US20230078089A1, “Regulating Activation of Fibroblasts to Prevent Fibrosis” (THE J. DAVID GLADSTONE INSTITUTES, A TESTAMENTARY TRUST …, priority 2020, published 2023).
